Measurements published in patent US20250215030A1, “STAT MODULATORS AND USES THEREOF” (Recludix Pharma, Inc., priority 2022, published 2025).

Legend:
[1] = target: T1, Recombinant STAT3 protein (STAT3(G127-I722)) (Homo sapiens, UniProt P40763); assay: STAT3 Fluorescence Polarization (FP) Assay; type: binding; details: STAT3(G127-I722) 25 nM, probe 5-FAM-GpYLPQTV-NH2 2 nM, 45-minute incubation
T1 construct: STAT3(G127-I722)
Experimental: STAT3 Fluorescence Polarization (FP) Assay
An FP assay was developed to determine IC50 values for test substances. Recombinant STAT3 protein (STAT3(G127-I722)) at 25 nM was combined with a fluorescently labeled, phosphotyrosine peptide probe (5-FAM-GpYLPQTV-NH2) at 2 nM in FP buffer (10 mM HEPES pH 7.4, 50 mM NaCl, 1 mM EDTA, 0.05% Tween 20, 2 mM DTT). 50 μL of STAT3-probe mixture was added to serial diluted compounds in black, 96-well plates (Greiner BioOne 655076) to a final concentration of 1% DMSO. Reaction components were mixed, and FP was measured after 45-minute incubation at room temperature using a Tecan Spark multimode plate reader. FP signal (mP) was plotted against the log concentration of the test substances and IC50 values were calculated by nonlinear regression analysis using GraphPad Prism software. For STAT3 FP assay, A=≤100 nM; B=>100-1000 nM; C=>1-10 μM; and D=>10 μM.

[2] = target: T2, Recombinant STAT6 protein (STAT6(W123-T658)) (Homo sapiens, UniProt P42226); assay: STAT6 Fluorescence Polarization (FP) Assay; type: binding; details: STAT6(W123-T658) 250 nM, probe 5-FAM-ApYKPFQDLI-NH2 2 nM, 45-minute incubation
T2 construct: STAT6(W123-T658)
T2 sequence (P42226 123-658): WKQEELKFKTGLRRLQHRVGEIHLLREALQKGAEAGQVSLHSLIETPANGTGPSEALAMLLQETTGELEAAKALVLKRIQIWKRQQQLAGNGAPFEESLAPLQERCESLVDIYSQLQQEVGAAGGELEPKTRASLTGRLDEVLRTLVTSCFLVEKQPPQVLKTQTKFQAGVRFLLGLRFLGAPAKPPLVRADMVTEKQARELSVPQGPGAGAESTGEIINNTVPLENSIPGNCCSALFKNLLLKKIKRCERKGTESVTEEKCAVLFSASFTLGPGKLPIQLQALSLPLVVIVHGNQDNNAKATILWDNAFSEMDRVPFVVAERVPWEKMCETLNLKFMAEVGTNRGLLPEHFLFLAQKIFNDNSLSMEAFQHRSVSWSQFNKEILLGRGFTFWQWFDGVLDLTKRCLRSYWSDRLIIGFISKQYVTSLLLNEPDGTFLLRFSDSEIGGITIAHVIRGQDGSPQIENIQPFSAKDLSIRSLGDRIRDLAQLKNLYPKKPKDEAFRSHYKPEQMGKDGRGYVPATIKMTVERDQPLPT
Experimental: STAT6 Fluorescence Polarization (FP) Assay
An FP assay was developed to determine IC50 values for test substances. Recombinant STAT6 protein (STAT6(W123-T658)) at 250 nM was combined with a fluorescently labeled, phosphotyrosine peptide probe (5-FAM-ApYKPFQDLI-NH2) at 2 nM in FP buffer (10 mM HEPES pH 7.4, 50 mM NaCl, 1 mM EDTA, 0.05% Tween 20, 2 mM DTT). 50 μL of STAT6-probe mixture was added to serial diluted compounds in black, 96-well plates (Greiner BioOne 655076) to a final concentration of 1% DMSO. Reaction components were mixed, and FP was measured after 45-minute incubation at room temperature using a Tecan Spark multimode plate reader. FP signal (mP) was plotted against the log concentration of the test substances and IC50 values were calculated by nonlinear regression analysis using GraphPad Prism software. For STAT6 FP assay, A=≤300 nM; B=>300-3000 nM; C=>3-30 μM; and D=>30 μM.

T1 sequence (P40763 127-722, species assumed): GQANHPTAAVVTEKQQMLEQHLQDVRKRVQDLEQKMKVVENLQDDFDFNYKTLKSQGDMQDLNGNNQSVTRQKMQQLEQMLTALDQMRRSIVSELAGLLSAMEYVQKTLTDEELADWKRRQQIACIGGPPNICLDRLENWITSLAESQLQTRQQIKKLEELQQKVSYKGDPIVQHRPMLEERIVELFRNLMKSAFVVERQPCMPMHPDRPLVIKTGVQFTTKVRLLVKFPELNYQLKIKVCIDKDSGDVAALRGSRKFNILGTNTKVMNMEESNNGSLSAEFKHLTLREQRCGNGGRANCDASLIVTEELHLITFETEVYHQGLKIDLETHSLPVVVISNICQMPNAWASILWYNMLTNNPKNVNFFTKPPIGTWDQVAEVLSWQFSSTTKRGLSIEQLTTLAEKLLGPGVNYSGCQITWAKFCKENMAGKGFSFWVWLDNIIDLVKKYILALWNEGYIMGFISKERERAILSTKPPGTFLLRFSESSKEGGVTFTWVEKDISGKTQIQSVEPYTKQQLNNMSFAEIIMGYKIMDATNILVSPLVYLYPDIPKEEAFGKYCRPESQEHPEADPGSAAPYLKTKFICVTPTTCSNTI

IC50 [1] [nM]	IC50 [2] [nM]	SMILES
100 to 1000	≤ 300	N#C[C@@H]1CN(C(=O)[C@@H]2CC[C@@H]3C[C@H]4C[C@H]4C[C@H](NC(=O)c4cc5cc(C(F)(F)P(=O)(O)O)ccc5s4)C(=O)N32)C[C@H]1c1ccccc1 (relative stereo) [Compound 10, ((2-(((3S,6S,7aS,8aR,9aR)-3-((rel-trans)-3-cyano-4-phenylpyrrolidine-1-carbonyl)-5-oxodecahydro-1H-cyclopropa[d]pyrrolo[1,2-a]azocin-6-yl)carbamoyl)benzo[b]thiophen-5-yl)difluoromethyl)phosphonic acid]
100 to 1000	≤ 300	N#C[C@@H]1CN(C(=O)[C@@H]2CC[C@@H]3C[C@@H]4C[C@@H]4C[C@H](NC(=O)c4cc5cc(C(F)(F)P(=O)(O)O)ccc5s4)C(=O)N32)C[C@H]1c1ccccc1 (relative stereo) [Compound 11, ((2-(((3S,6S,7aR,8aS,9aR)-3-((rel-trans)-3-cyano-4-phenylpyrrolidine-1-carbonyl)-5-oxodecahydro-1H-cyclopropa[d]pyrrolo[1,2-a]azocin-6-yl)carbamoyl)benzo[b]thiophen-5-yl)difluoromethyl)phosphonic acid]
100 to 1000	3000 to 30000	O=C(N[C@H]1C[C@@H]2C[C@@H]2C[C@H]2CC[C@@H](C(=O)N3CC[C@@H](C(=O)N4CCOCC4)C3)N2C1=O)c1cc2cc(C(F)(F)P(=O)(O)O)ccc2s1 (single isomer, unassigned) [Compound 98]
100 to 1000	3000 to 30000	O=C(N[C@H]1C[C@@H]2C[C@@H]2C[C@H]2CC[C@@H](C(=O)N3CC[C@H](C(=O)N4CCOCC4)C3)N2C1=O)c1cc2cc(C(F)(F)P(=O)(O)O)ccc2s1 (single isomer, unassigned) [Compound 99]
< 100	3000 to 30000	O=C(N[C@H]1C[C@H]2C[C@H]2C[C@H]2CC[C@@H](C(=O)N3CC(c4ccon4)C3)N2C1=O)c1cc2cc([C@@H](F)P(=O)(O)O)ccc2s1 (single isomer, unassigned) [Example 344]
< 100	3000 to 30000	CCc1ccncc1C1CN(C(=O)[C@@H]2CC[C@@H]3C[C@@H]4C[C@@H]4C[C@H](NC(=O)c4cc5cc([C@H](F)P(=O)(O)O)ccc5s4)C(=O)N32)C1 (single isomer, unassigned) [Example 345]
< 100	3000 to 30000	O=C(N[C@H]1C[C@H]2C[C@H]2C[C@H]2CC[C@@H](C(=O)N3CC(c4ccon4)C3)N2C1=O)c1cc2cc([C@H](F)P(=O)(O)O)ccc2s1 (single isomer, unassigned) [Example 346]
< 100	3000 to 30000	COc1ccncc1C1CN(C(=O)[C@@H]2CC[C@@H]3C[C@@H]4C[C@@H]4C[C@H](NC(=O)c4cc5cc([C@H](F)P(=O)(O)O)ccc5s4)C(=O)N32)C1 (single isomer, unassigned) [Example 353]
< 100	> 30000	COc1ccncc1C1CN(C(=O)[C@@H]2CC[C@@H]3C[C@@H]4C[C@@H]4C[C@H](NC(=O)c4cc5cc([C@@H](F)P(=O)(O)O)ccc5s4)C(=O)N32)C1 (single isomer, unassigned) [Example 354]
< 100	300 to 3000	N#CC1(c2ccccn2)CN(C(=O)[C@@H]2CC[C@@H]3C[C@@H]4C[C@@H]4C[C@H](NC(=O)c4cc5cc([C@H](F)P(=O)(O)O)ccc5s4)C(=O)N32)C1 (single isomer, unassigned) [Example 355]
< 100	3000 to 30000	N#CC1(c2ccccn2)CN(C(=O)[C@@H]2CC[C@@H]3C[C@@H]4C[C@@H]4C[C@H](NC(=O)c4cc5cc([C@@H](F)P(=O)(O)O)ccc5s4)C(=O)N32)C1 (single isomer, unassigned) [Example 356]
< 100	3000 to 30000	CCc1ccncc1C1CN(C(=O)[C@@H]2CC[C@@H]3C[C@@H]4C[C@@H]4C[C@H](NC(=O)c4cc5cc([C@@H](F)P(=O)(O)O)ccc5s4)C(=O)N32)C1 (single isomer, unassigned) [Example 357]
< 100	3000 to 30000	Cc1cccc(C2CN(C(=O)[C@@H]3CC[C@@H]4C[C@@H]5C[C@@H]5C[C@H](NC(=O)c5cc6cc([C@H](F)P(=O)(O)O)ccc6s5)C(=O)N43)C2)n1 (single isomer, unassigned) [Example 370]
< 100	3000 to 30000	Cc1cccc(C2CN(C(=O)[C@@H]3CC[C@@H]4C[C@@H]5C[C@@H]5C[C@H](NC(=O)c5cc6cc([C@@H](F)P(=O)(O)O)ccc6s5)C(=O)N43)C2)n1 (single isomer, unassigned) [Example 371]
< 100	> 30000	O=C(N[C@H]1C[C@H]2C[C@H]2C[C@H]2CC[C@@H](C(=O)N3CC(c4cnccc4N4CCOCC4)C3)N2C1=O)c1cc2cc([C@@H](F)P(=O)(O)O)ccc2s1 (single isomer, unassigned) [Example 391]
< 100	3000 to 30000	CN(C)c1ccncc1C1CN(C(=O)[C@@H]2CC[C@@H]3C[C@@H]4C[C@@H]4C[C@H](NC(=O)c4cc5cc([C@@H](F)P(=O)(O)O)ccc5s4)C(=O)N32)C1 (single isomer, unassigned) [Example 394]
< 100	3000 to 30000	O=C(N[C@H]1C[C@@H]2C[C@@H]2CC2CC[C@@H](C(=O)N3CC(c4cncnc4N4CCC4)C3)N2C1=O)c1cc2cc([C@@H](F)P(=O)(O)O)ccc2s1 (single isomer, unassigned) [Example 401]
< 100	300 to 3000	O=C(N[C@H]1C[C@@H]2C[C@@H]2CC2CC[C@@H](C(=O)N3CC(c4cncnc4N4CCC4)C3)N2C1=O)c1cc2cc([C@H](F)P(=O)(O)O)ccc2s1 (single isomer, unassigned) [Example 402]
< 100	3000 to 30000	CN1CCN(c2ccncc2C2CN(C(=O)[C@@H]3CC[C@@H]4C[C@H]5C[C@H]5C[C@H](NC(=O)c5cc6cc([C@H](F)P(=O)(O)O)ccc6s5)C(=O)N43)C2)CC1 (single isomer, unassigned) [Example 403]
< 100	> 30000	CN1CCN(c2ccncc2C2CN(C(=O)[C@@H]3CC[C@@H]4C[C@H]5C[C@H]5C[C@H](NC(=O)c5cc6cc([C@@H](F)P(=O)(O)O)ccc6s5)C(=O)N43)C2)CC1 (single isomer, unassigned) [Example 404]

SMILES	IC50 [1] [nM]	IC50 [2] [nM]
N#C[C@H]1CN(C(=O)[C@@H]2CC[C@@H]3C[C@H]4C[C@H]4C[C@H](NC(=O)c4cc5cc(C(F)(F)P(=O)(O)O)ccc5s4)C(=O)N32)C[C@@]12C(=O)Nc1ccccc12 (single isomer, unassigned) [Compound 27]	100 to 1000	300 to 3000
N#C[C@@H]1CN(C(=O)[C@@H]2CC[C@@H]3C[C@H]4C[C@H]4C[C@H](NC(=O)c4cc5cc(C(F)(F)P(=O)(O)O)ccc5s4)C(=O)N32)C[C@]12C(=O)Nc1ccccc12 (single isomer, unassigned) [Compound 28]	< 100	≤ 300
N#C[C@@H]1CN(C(=O)[C@@H]2CC[C@@H]3[C@H]4C[C@H]4C[C@H](NC(=O)c4cc5cc(C(F)(F)P(=O)(O)O)ccc5s4)C(=O)N32)C[C@H]1c1ccccc1 (single isomer, unassigned) [Compound 66, ((2-(((3S,6S,7aS,8aS,8bR)-3-((3S,4R or 3R,4S)-3-cyano-4-phenylpyrrolidine-1-carbonyl)-5-oxodecahydrocyclopropa[c]pyrrolo[1,2-a]azepin-6-yl)carbamoyl)benzo[b]thiophen-5-yl)difluoromethyl)phosphonic acid]	1000 to 10000	≤ 300
